Tests used:
[1] = test system: Diabrotica balteata (Corn Root Worm); experiment: Example B1: Diabrotica balteata, spray on maize sprouts; assay type: in vivo; details: 96 h, application rate of 200 ppm, L2 larvae, 4 days after infestation, read-out: control in at least one of the two categories (mortality or growth inhibition)
Description: Example B1: Diabrotica balteata (Corn Root Worm)
Maize sprouts placed onto an agar layer in 24-well microtiter plates were treated with aqueous test solutions prepared from 10,000 ppm DMSO stock solutions by spraying. After drying, the plates were infested with L2 larvae (6 to 10 per well). The samples were assessed for mortality and growth inhibition in comparison to untreated samples 4 days after infestation.
(§1) The following compounds gave an effect of at least 80% control in at least one of the two categories (mortality or growth inhibition) at an application rate of 200 ppm: […]

[2] = test system: Euschistus heros (Neotropical Brown Stink Bug); experiment: Example B2: Euschistus heros, spray on soybean leaves; assay type: in vivo; details: 120 h, application rate of 200 ppm, N2 nymphs, 5 days after infestation, read-out: control in at least one of the two categories (mortality or growth inhibition)
Description: Example B2: Euschistus heros (Neotropical Brown Stink Bug)
Soybean leaves on agar in 24-well microtiter plates were sprayed with aqueous test solutions prepared from 10,000 ppm DMSO stock solutions. After drying the leaves were infested with N2 nymphs. The samples were assessed for mortality and growth inhibition in comparison to untreated samples 5 days after infestation.
as §1

[3] = test system: Chilo suppressalis (Striped Rice Stemborer); experiment: Example B3: Chilo suppressalis, artificial diet; assay type: in vivo; details: 144 h, application rate of 200 ppm, L2 larvae, 6 days after infestation, read-out: control in at least one of the three categories (mortality, anti-feedant effect, or growth inhibition)
Description: Example B3: Chilo suppressalis (Striped Rice Stemborer)
24-well microtiter plates with artificial diet were treated with aqueous test solutions prepared from 10,000 ppm DMSO stock solutions by pipetting. After drying, the plates were infested with L2 larvae (6-8 per well). The samples were assessed for mortality, anti-feeding effect, and growth inhibition in comparison to untreated samples 6 days after infestation. Control of Chilo suppressalis by a test sample is given when at least one of the categories mortality, anti-feedant effect, and growth inhibition is higher than the untreated sample.

[4] = test system: Plutella xylostella (Diamond Back Moth); experiment: Example B4: Plutella xylostella, artificial diet, 24-well; assay type: in vivo; details: 192 h, application rate of 200 ppm, eggs, 8 days after infestation, read-out: control in at least one of the two categories (mortality or growth inhibition)
Description: Example B4: Plutella xylostella (Diamond Back Moth)
24-well microtiter plates with artificial diet were treated with aqueous test solutions prepared from 10,000 ppm DMSO stock solutions by pipetting. After drying, Plutella eggs were pipetted through a plastic stencil onto a gel blotting paper and the plate was closed with it. The samples were assessed for mortality and growth inhibition in comparison to untreated samples 8 days after infestation.
as §1

[5] = test system: Myzus persicae (Green Peach Aphid); experiment: Example B5: Myzus persicae, intrinsic activity; assay type: in vivo; details: 120 h, test rate of 12 ppm, 5 days after infestation
Description: Example B5: Myzus persicae (Green Peach Aphid). Intrinsic Activity
Test compounds prepared from 10,000 ppm DMSO stock solutions were applied by pipette into 24-well microtiter plates and mixed with sucrose solution. The plates were closed with a stretched Parafilm. A plastic stencil with 24 holes was placed onto the plate and infested pea seedlings were placed directly on the Parafilm. The infested plate was closed with a gel blotting paper and another plastic stencil and then turned upside down. The samples were assessed for mortality 5 days after infestation.

[6] = test system: Spodoptera littoralis (Egyptian Cotton Leaf Worm); experiment: Example B6: Spodoptera littoralis, spray on cotton leaf discs; assay type: in vivo; details: foliar, 72 h, application rate of 200 ppm, L1 larvae, 3 days after infestation, read-out: control in at least one of the three categories (mortality, anti-feedant effect, or growth inhibition)
Description: Example B6: Spodoptera littoralis (Egyptian Cotton Leaf Worm)
Cotton leaf discs were placed onto agar in 24-well microtiter plates and sprayed with aqueous test solutions prepared from 10,000 ppm DMSO stock solutions. After drying the leaf discs were infested with five L1 larvae. The samples were assessed for mortality, anti-feeding effect, and growth inhibition in comparison to untreated samples 3 days after infestation. Control of Spodoptera littoralis by a test sample is given when at least one of the categories mortality, anti-feedant effect, and growth inhibition is higher than the untreated sample.

[7] = test system: Plutella xylostella (Diamondback Moth); experiment: Example B9: Plutella xylostella, artificial diet, 96-well; assay type: in vivo; details: 216 h, application rate of 500 ppm, eggs/L1 larvae, 9 days after infestation
Description: Example B9: Plutella xylostella (Diamondback Moth)
96-well microtiter plates containing artificial diet were treated with aqueous test solutions, prepared from 10,000 ppm DMSO stock solutions, by a liquid handling robot. After drying, eggs (˜30 per well) were infested onto a netted lid which was suspended above the diet. The eggs hatch and L1 larvae move down to the diet. The samples were assessed for mortality 9 days after infestation.
The following compounds gave an effect of at least 80% mortality at an application rate of 500 ppm: […]

[8] = test system: Myzus persicae (Green Peach Aphid); experiment: Example B10: Myzus persicae, sucrose solution, 96-well; assay type: in vivo; details: 120 h, application rate of 50 ppm, 5 days after infestation
Description: Example B10: Myzus persicae (Green Peach Aphid)
Test compounds prepared from 10,000 ppm DMSO stock solutions were applied by a liquid handling robot into 96-well microtiter plates and mixed with a sucrose solution. Parafilm was stretched over the 96-well microtiter plate and a plastic stencil with 96 holes was placed onto the plate. Aphids were sieved into the wells directly onto the Parafilm. The infested plates were closed with a gel blotting card and a second plastic stencil and then turned upside down. The samples were assessed for mortality 5 days after infestation.

[9] = test system: Spodoptera littoralis (Egyptian Cotton Leaf Worm); experiment: Example B7: Spodoptera littoralis, uptake by lettuce roots from agar; assay type: in vivo; details: 144 h, test rate of 12.5 ppm, absorbed by lettuce roots, eggs, 6 days after infestation, read-out: control in at least one of the three categories (mortality, anti-feeding, or growth inhibition)
Description: Example B7: Spodoptera littoralis (Egyptian Cotton Leaf Worm)
Test compounds were applied by pipette from 10,000 ppm DMSO stock solutions into 24-well plates and mixed with agar. Lettuce seeds were placed onto the agar and the multi well plate was closed by another plate which contained also agar. After 7 days the compound was absorbed by the roots and the lettuce grew into the lid plate. The lettuce leaves were then cut off into the lid plate. Spodoptera eggs were pipetted through a plastic stencil onto a humid gel blotting paper and the lid plate was closed with it. The samples were assessed for mortality, anti-feedant effect and growth inhibition in comparison to untreated samples 6 days after infestation.
The following compounds gave an effect of at least 80% control in at least one of the three categories (mortality, anti-feeding, or growth inhibition) at a test rate of 12.5 ppm: […]

Row | SMILES | melting point [°C] | percent control (mortality or growth inhibition) at 200 ppm [1] [%] | percent control (mortality or growth inhibition) at 200 ppm [2] [%] | percent control (mortality, anti-feedant effect or growth inhibition) at 200 ppm [3] [%] | percent control (mortality or growth inhibition) at 200 ppm [4] [%] | mortality at 12 ppm [5] [%] | percent control (mortality, anti-feedant effect or growth inhibition) at 200 ppm [6] [%] | mortality at 500 ppm [7] [%] | mortality at 50 ppm [8] [%] | percent control (mortality, anti-feeding or growth inhibition) at 12.5 ppm [9] [%]
1 | CCOc1cc(C(=O)NC(C)c2nccnc2-n2nccn2)cc(Cl)n1 (centres unmarked) [Compound P21, 2-chloro-6-ethoxy-N-[1-[3-(triazol-2-yl)pyrazin-2-yl]ethyl]pyridine-4-carboxamide] | 129 to 130 |  |  |  |  |  |  |  |  | 
2 | CC(NC(=O)c1cc(C(F)(F)F)cc(C2(C#N)CC2)c1)c1nccnc1-n1nccn1 (centres unmarked) [Compound P16, 3-(1-cyanocyclopropyl)-N-[1-[3-(triazol-2-yl)pyrazin-2-yl]ethyl]-5-(trifluoromethyl)benzamide] |  | ≥ 80 | ≥ 80 | ≥ 80 | ≥ 80 | ≥ 80 | ≥ 80 | ≥ 80 | ≥ 80 | 
3 | CCCc1cc(C(=O)NC(C)c2nccnc2-n2nccn2)cc(Cl)n1 (centres unmarked) [Compound P34, 2-chloro-6-propyl-N-[1-[3-(triazol-2-yl)pyrazin-2-yl]ethyl]pyridine-4-carboxamide] | 142 to 145 |  |  |  |  |  |  |  |  | 
4 | CC(NC(=O)c1cc(OC(F)(F)F)cc(C(F)(F)F)c1)c1nccnc1-n1nccn1 (centres unmarked) [Compound P5, N-[1-[3-(triazol-2-yl)pyrazin-2-yl]ethyl]-3-(trifluoromethoxy)-5-(tifluoromethyl)benzamide] |  | ≥ 80 |  | ≥ 80 | ≥ 80 |  | ≥ 80 | ≥ 80 |  | ≥ 80
5 | CC(NC(=O)c1cc(Br)cc(C(F)(F)F)c1)c1nccnc1-n1nccn1 (centres unmarked) [Compound P2, 3-bromo-N-[1-[3-(triazol-2-yl)pyrazin-2-yl]ethyl]-5-(trifluoromethyl)benzamide] |  | ≥ 80 | ≥ 80 | ≥ 80 | ≥ 80 |  | ≥ 80 | ≥ 80 | ≥ 80 | ≥ 80
6 | CC(NC(=O)c1cc(OC(F)F)cc(C(F)(F)F)c1)c1nccnc1-n1nccn1 (centres unmarked) [Compound P10, 3-(difluoromethoxy)-N-[1-[3-(triazol-2-yl)pyrazin-2-yl]ethyl]-5-(trifluoromethyl)benzamide] |  | ≥ 80 |  | ≥ 80 | ≥ 80 |  | ≥ 80 | ≥ 80 | ≥ 80 | ≥ 80
7 | CC(NC(=O)c1cc(C(F)(F)F)cc(C(F)(F)F)c1)c1nccnc1-n1nccn1 (centres unmarked) [Compound P49, N-[1-[3-(triazol-2-yl)pyrazin-2-yl]ethyl]-3,5-bis(trifluoromethyl)benzamide] |  | ≥ 80 | ≥ 80 | ≥ 80 | ≥ 80 |  | ≥ 80 |  |  | ≥ 80
8 | COc1cc(C)cc(C(=O)NC(C)c2nccnc2-n2nccn2)c1 (centres unmarked) [Compound P27, 3-methoxy-5-methyl-N-[1-[3-(triazol-2-yl)pyrazin-2-yl]ethyl]benzamide] | 128 to 129 |  |  |  |  |  |  |  |  | 
9 | Cc1cc(F)cc(C(=O)NC(C)c2nccnc2-n2nccn2)c1 (centres unmarked) [Compound P37, 3-fluoro-5-methyl-N-[1-[3-(triazol-2-yl)pyrazin-2-yl]ethyl]benzamide] | 154 to 155 |  |  |  |  |  |  |  |  | 
10 | CCc1cc(C(=O)NC(C)c2nccnc2-n2nccn2)cc(Cl)n1 (centres unmarked) [Compound P31, 2-chloro-6-ethyl-N-[1-[3-(triazol-2-yl)pyrazin-2-yl]ethyl]pyridine-4-carboxamide] | 126 to 129 |  |  |  |  |  |  |  |  | 
11 | CC(NC(=O)c1cc(Cl)nc(Cl)c1)c1nccnc1-n1nccn1 (centres unmarked) [Compound P29, 2,6-dichloro-N-[1-[3-(triazol-2-yl)pyrazin-2-yl]ethyl]pyridine-4-carboxamide] |  | ≥ 80 |  | ≥ 80 | ≥ 80 |  | ≥ 80 | ≥ 80 | ≥ 80 | ≥ 80
12 | CC(NC(=O)c1cc(C(F)(F)F)cc(S(=O)(=O)C2CC2)c1)c1nccnc1-n1nccn1 (centres unmarked) [Compound P40, 3-cyclopropylsulfonyl-N-[1-[3-(triazol-2-yl)pyrazin-2-yl]ethyl]-5-(trifluoromethyl)benzamide] |  |  |  | ≥ 80 | ≥ 80 | ≥ 80 | ≥ 80 | ≥ 80 | ≥ 80 | 
13 | CC(NC(=O)c1cc(Cl)cc(C(F)(F)F)c1)c1nccnc1-n1nccn1 (centres unmarked) [Compound P4, 3-chloro-N-[1-[3-(triazol-2-yl)pyrazin-2-yl]ethyl]-5-(trifluoromethyl)benzamide] |  | ≥ 80 | ≥ 80 | ≥ 80 | ≥ 80 |  | ≥ 80 | ≥ 80 | ≥ 80 | ≥ 80
14 | Cc1cnc(C(C)NC(=O)c2cc(C(F)(F)F)cc(C(F)(F)F)c2)c(-n2ccnn2)n1 (centres unmarked) [Compound P43, N-[1-[5-methyl-3-(triazol-1-yl)pyrazin-2-yl]ethyl]-3,5-bis(trifluoromethyl)benzamide] | 167 to 171 |  |  |  |  |  |  |  |  | 
